# Measurements reported in ChEMBL document CHEMBL3758136, “Design, synthesis and in vitro activity of phidianidine B derivatives as novel PTP1B inhibitors with specific selectivity” (Bioorg Med Chem Lett, 2016).
# Columns and labels:
# [1] = biological target: Receptor-type tyrosine-protein phosphatase F (Homo sapiens, UniProt P10586); assay: Inhibition of human LAR as hydrolysis of pNPP after 2 mins
# [2] = biological target: T1, Tyrosine-protein phosphatase non-receptor type 11 (Homo sapiens, UniProt Q06124); assay: Inhibition of human SHP2 as hydrolysis of pNPP after 2 mins
# T1 sequence (Q06124 whole entry): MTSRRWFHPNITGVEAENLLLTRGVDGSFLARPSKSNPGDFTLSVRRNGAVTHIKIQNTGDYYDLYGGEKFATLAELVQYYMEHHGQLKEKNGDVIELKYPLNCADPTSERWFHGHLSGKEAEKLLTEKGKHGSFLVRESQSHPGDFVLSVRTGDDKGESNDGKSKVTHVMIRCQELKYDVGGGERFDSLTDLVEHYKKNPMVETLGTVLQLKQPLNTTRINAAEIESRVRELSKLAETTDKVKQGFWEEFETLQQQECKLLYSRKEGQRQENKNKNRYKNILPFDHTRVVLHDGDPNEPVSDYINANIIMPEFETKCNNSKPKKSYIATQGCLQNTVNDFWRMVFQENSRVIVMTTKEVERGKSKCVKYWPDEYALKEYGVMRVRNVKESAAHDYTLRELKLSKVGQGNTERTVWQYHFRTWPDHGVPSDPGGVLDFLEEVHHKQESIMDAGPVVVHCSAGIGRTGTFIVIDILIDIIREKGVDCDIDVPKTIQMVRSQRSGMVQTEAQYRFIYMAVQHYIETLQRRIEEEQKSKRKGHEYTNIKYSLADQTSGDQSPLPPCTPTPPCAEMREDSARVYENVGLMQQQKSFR
# [3] = biological target: Tyrosine-protein phosphatase non-receptor type 6 (Homo sapiens, UniProt P29350); assay: Inhibition of human SHP1 as hydrolysis of pNPP after 2 mins
# Sequence of Tyrosine-protein phosphatase non-receptor type 6 (P29350 whole entry, the tested form may be a part): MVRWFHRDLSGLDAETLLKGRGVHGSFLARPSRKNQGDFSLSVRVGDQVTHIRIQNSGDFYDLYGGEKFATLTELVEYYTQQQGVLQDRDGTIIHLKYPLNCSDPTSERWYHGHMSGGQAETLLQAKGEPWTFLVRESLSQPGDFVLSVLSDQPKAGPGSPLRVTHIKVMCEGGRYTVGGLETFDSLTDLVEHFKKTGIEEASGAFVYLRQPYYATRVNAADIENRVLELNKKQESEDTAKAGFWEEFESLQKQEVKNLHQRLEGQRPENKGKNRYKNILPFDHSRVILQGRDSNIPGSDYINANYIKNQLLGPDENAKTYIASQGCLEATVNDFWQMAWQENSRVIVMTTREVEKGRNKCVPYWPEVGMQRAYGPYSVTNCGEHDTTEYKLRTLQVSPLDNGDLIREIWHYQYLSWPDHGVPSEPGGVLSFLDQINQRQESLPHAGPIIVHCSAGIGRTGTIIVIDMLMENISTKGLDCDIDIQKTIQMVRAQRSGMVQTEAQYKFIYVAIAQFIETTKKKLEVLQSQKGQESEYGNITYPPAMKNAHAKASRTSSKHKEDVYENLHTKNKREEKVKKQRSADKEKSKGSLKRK
# [4] = biological target: T2, Tyrosine-protein phosphatase non-receptor type 1 (Homo sapiens, UniProt P18031); assay: Inhibition of recombinant human PTP1B catalytic domain assessed as hydrolysis of pNPP after 2 mins
# T2 sequence (P18031 whole entry): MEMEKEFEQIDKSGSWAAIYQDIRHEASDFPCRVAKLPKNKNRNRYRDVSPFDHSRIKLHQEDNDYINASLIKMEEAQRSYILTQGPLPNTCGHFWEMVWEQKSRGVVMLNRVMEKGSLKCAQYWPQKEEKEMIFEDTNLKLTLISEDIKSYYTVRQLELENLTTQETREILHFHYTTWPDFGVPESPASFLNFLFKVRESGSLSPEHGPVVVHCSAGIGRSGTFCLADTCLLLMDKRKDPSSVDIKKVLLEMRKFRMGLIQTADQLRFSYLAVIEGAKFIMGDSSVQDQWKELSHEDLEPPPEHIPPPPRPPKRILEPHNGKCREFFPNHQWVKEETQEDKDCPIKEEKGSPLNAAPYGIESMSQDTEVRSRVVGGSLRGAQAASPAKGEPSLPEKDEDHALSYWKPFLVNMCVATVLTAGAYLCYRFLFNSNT
# [5] = biological target: T3, Tyrosine-protein phosphatase non-receptor type 2 (Homo sapiens, UniProt P17706); assay: Inhibition of human TCPTP as hydrolysis of pNPP after 2 mins
# T3 sequence (P17706 whole entry): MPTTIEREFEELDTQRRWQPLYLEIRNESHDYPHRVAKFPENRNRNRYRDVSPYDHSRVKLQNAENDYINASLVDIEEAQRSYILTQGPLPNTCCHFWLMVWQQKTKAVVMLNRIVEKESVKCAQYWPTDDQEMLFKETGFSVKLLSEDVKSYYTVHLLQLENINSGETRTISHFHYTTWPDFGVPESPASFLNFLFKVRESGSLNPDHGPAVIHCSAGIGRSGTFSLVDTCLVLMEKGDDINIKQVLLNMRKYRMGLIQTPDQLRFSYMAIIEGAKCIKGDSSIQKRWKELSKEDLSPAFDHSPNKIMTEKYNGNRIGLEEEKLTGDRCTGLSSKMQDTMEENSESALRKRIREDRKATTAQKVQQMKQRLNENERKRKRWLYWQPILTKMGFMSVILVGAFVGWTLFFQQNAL
# Sequence of Receptor-type tyrosine-protein phosphatase F (P10586 whole entry): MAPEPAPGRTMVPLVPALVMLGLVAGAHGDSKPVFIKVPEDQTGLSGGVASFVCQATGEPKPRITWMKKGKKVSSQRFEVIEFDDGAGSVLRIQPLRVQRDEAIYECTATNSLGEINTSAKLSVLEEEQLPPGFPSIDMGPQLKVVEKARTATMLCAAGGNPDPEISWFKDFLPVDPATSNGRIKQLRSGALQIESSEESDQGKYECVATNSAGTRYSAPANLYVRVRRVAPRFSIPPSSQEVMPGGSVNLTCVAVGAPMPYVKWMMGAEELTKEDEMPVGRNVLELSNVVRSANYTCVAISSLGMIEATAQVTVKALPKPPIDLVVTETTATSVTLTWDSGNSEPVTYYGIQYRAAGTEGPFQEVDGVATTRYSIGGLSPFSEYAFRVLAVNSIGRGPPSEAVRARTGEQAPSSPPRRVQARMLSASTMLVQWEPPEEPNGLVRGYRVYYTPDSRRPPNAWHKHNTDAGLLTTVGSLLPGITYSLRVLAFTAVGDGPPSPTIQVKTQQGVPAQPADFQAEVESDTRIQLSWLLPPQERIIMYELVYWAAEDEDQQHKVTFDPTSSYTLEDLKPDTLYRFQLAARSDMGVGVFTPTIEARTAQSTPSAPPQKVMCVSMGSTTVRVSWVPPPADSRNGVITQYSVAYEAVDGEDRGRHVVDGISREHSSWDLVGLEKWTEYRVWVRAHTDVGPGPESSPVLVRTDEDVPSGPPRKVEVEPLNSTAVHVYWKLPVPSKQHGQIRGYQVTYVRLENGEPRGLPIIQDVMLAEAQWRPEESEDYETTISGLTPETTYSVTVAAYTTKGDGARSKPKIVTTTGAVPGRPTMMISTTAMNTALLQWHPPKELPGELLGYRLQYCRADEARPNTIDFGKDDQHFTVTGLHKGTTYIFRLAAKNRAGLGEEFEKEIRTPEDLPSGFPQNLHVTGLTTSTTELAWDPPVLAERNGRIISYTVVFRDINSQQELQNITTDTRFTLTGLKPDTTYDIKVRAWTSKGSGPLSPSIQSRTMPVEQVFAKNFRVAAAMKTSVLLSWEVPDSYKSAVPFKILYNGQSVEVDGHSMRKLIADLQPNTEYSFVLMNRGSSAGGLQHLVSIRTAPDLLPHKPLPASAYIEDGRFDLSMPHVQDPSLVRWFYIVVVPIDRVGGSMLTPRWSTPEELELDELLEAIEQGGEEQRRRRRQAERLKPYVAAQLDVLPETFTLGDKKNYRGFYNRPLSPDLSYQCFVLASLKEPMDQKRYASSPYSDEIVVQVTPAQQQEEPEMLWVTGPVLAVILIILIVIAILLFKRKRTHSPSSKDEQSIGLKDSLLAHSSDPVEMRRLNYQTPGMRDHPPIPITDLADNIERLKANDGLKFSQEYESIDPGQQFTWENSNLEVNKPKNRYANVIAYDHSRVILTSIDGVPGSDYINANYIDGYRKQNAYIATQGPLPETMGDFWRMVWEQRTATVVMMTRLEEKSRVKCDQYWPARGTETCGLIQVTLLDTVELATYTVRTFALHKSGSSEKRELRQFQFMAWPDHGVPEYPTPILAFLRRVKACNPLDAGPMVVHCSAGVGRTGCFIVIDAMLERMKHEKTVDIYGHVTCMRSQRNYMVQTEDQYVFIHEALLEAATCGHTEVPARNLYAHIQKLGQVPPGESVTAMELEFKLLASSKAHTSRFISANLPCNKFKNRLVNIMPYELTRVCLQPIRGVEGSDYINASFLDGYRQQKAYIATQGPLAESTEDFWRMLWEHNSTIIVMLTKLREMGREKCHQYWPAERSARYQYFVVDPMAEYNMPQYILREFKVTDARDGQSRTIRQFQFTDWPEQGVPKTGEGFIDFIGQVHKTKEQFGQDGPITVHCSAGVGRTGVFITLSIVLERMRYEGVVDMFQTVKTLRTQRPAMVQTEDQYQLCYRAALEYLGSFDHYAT
SMILES,IC50 [1],IC50 [2],IC50 [3],IC50 [4],IC50 [5]
Nc1ccc(-c2ccc(-c3noc(Cc4c[nH]c5ccccc45)n3)s2)cc1,> 120 µM,> 120 µM,> 120 µM,> 120 µM,> 120 µM
Nc1ccc(-c2cccc(-c3noc(Cc4c[nH]c5ccccc45)n3)c2)cc1,> 120 µM,> 120 µM,> 120 µM,> 120 µM,> 120 µM
Brc1ccc(-c2noc(Cc3c[nH]c4ccccc34)n2)s1,> 120 µM,> 120 µM,> 120 µM,14.1 µM,> 120 µM
Cc1ccccc1-c1ccc(-c2noc(Cc3c[nH]c4ccccc34)n2)s1,> 120 µM,> 120 µM,> 120 µM,16.8 µM,> 120 µM
CCCCc1ccc(-c2ccc(-c3noc(Cc4c[nH]c5ccccc45)n3)s2)cc1,> 120 µM,> 120 µM,> 120 µM,8.96 µM,> 120 µM
Brc1cccc(-c2noc(Cc3c[nH]c4ccccc34)n2)c1,> 120 µM,> 120 µM,> 120 µM,19.7 µM,> 120 µM
CCCc1ccc(-c2ccc(-c3noc(Cc4c[nH]c5ccccc45)n3)s2)cc1,> 120 µM,> 120 µM,> 120 µM,12.5 µM,> 120 µM
CCCCc1ccc(-c2cccc(-c3noc(Cc4c[nH]c5ccccc45)n3)n2)cc1,> 120 µM,> 120 µM,> 120 µM,9.66 µM,> 120 µM
CCOc1ccc(-c2cccc(-c3noc(Cc4c[nH]c5ccccc45)n3)c2)cc1,> 120 µM,> 120 µM,> 120 µM,15.9 µM,> 120 µM
COC(=O)CCCOc1ccc(-c2ccc(-c3noc(Cc4c[nH]c5ccccc45)n3)s2)cc1,> 120 µM,> 120 µM,> 120 µM,> 120 µM,> 120 µM
CCc1ccc(-c2ccc(-c3noc(Cc4c[nH]c5ccccc45)n3)s2)cc1,> 120 µM,> 120 µM,> 120 µM,13.1 µM,> 120 µM
CCCOc1ccc(-c2cccc(-c3noc(Cc4c[nH]c5ccccc45)n3)c2)cc1,> 120 µM,> 120 µM,> 120 µM,18.4 µM,> 120 µM
Cc1ccccc1-c1cccc(-c2noc(Cc3c[nH]c4ccccc34)n2)c1,> 120 µM,> 120 µM,> 120 µM,24.4 µM,> 120 µM
Cc1cccc(-c2ccc(-c3noc(Cc4c[nH]c5ccccc45)n3)s2)c1,> 120 µM,> 120 µM,> 120 µM,> 120 µM,> 120 µM
CCOc1ccc(-c2cccc(-c3noc(Cc4c[nH]c5ccccc45)n3)n2)cc1,> 120 µM,> 120 µM,> 120 µM,31.5 µM,> 120 µM
Cc1cccc(-c2cccc(-c3noc(Cc4c[nH]c5ccccc45)n3)c2)c1,> 120 µM,> 120 µM,> 120 µM,15.8 µM,> 120 µM
CCCOc1ccc(-c2cccc(-c3noc(Cc4c[nH]c5ccccc45)n3)n2)cc1,> 120 µM,> 120 µM,> 120 µM,9.66 µM,> 120 µM
CCOc1ccc(-c2ccc(-c3noc(Cc4c[nH]c5ccccc45)n3)s2)cc1,> 120 µM,> 120 µM,> 120 µM,17.3 µM,> 120 µM
Brc1cccc(-c2noc(Cc3c[nH]c4ccccc34)n2)n1,> 120 µM,> 120 µM,> 120 µM,> 120 µM,> 120 µM
Oc1ccc(-c2cccc(-c3noc(Cc4c[nH]c5ccccc45)n3)c2)cc1,> 120 µM,> 120 µM,> 120 µM,21.9 µM,> 120 µM
CCCOc1ccc(-c2ccc(-c3noc(Cc4c[nH]c5ccccc45)n3)s2)cc1,> 120 µM,> 120 µM,> 120 µM,13.7 µM,> 120 µM
Cc1cccc(-c2cccc(-c3noc(Cc4c[nH]c5ccccc45)n3)n2)c1,> 120 µM,> 120 µM,> 120 µM,21.7 µM,> 120 µM
CCCc1ccc(-c2cccc(-c3noc(Cc4c[nH]c5ccccc45)n3)c2)cc1,> 120 µM,> 120 µM,> 120 µM,> 120 µM,> 120 µM
Cc1ccccc1-c1cccc(-c2noc(Cc3c[nH]c4ccccc34)n2)n1,> 120 µM,> 120 µM,> 120 µM,26.1 µM,> 120 µM
COC(=O)CCCOc1ccc(-c2cccc(-c3noc(Cc4c[nH]c5ccccc45)n3)c2)cc1,> 120 µM,> 120 µM,> 120 µM,> 120 µM,> 120 µM
CCCCc1ccc(-c2cccc(-c3noc(Cc4c[nH]c5ccccc45)n3)c2)cc1,> 120 µM,> 120 µM,> 120 µM,8.8 µM,> 120 µM
CC1(C)CC[C@]2(C(=O)O)CC[C@]3(C)C(=CC[C@@H]4[C@@]5(C)CC[C@H](O)C(C)(C)[C@@H]5CC[C@]43C)[C@@H]2C1 [OLEANOLIC_ACID],> 120 µM,> 120 µM,,,
